Results on two compounds are retold here after patent US20210154281A1, “CELL-BASED CANCER VACCINES AND CANCER THERAPIES” (Massachusetts Institute of Technology, priority 2019, published 2021).

In one series the test system is MC-38-Ova cells. Kind of series: In vitro cross presentation assay: drug-treated MC-38-Ova cells, BMDC and OT-1 CD8+ T-cells. It is filed as cell-based, mouse. The method, then:
B16-Ova or MC-38 Ova cells were treated with various doses of chemotherapeutic drugs for 24 h followed by extensive washing in IMDM (10% FBS, P/S). Subsequently 1×10^6 treated cells were co-cultured with 2.5×10^5 BMDC per well of a 24-well plate for each condition tested. After 24 hours of co-culture, supernatants were removed from each well and the BMDC washed 2-3 times in T-cell media (RPMI containing 10% FBS, 20 mM HEPES, 1 mM sodium pyruvate, 55 uM b-mercaptoethanol, 2 mM L-glutamine, nonessential amino acids and antibiotics). CD8+OT-I T-cells isolated from spleens of OT-I mice were then co-cultured with the BMDC at 125,000 T-cells per well to achieve an effector to target ratio of 0.5. Where indicated, BMDC and/or T-cells were also exposed to chemotherapy drugs. After a 12-15 h incubation, IFN-g producing T-cells were identified and quantified by intra-cellular cytokine staining and flow cytometry using a BD LSR II or Fortessa flow cytometer. Cells were first gated for CD3 expression, then re-gated for CD8 and IFNg expression.

A further series concerns RIPK1. Briefly: Western blotting with anti phosphoRIPK1(S166) antibody. It is filed as cell-based, mouse. To be noted: B16-Ova cells. On the technique in general: A western blot detects proteins with antibodies after separation by electrophoresis.
For series [1], the system named is CT26 mouse colon cancer cells. To be noted: previously reported; cited from earlier work.
A further series concerns BMDCs. Briefly: Viability of BMDCs upon exposure to etoposide.
Series [2] relates to B16-Ova tumors. Briefly: Immunophenotyping of intra-tumoral DC by flow cytometry. It is filed as in vivo, mice. The following applies: combined with checkpoint blockade; after 2 doses of vaccine or etoposide and 3 doses of checkpoint blockade. Here is the method:
Phenotypic characterization of immune cell populations was performed by flow cytometry. Briefly, tumors were harvested and mashed through a […] filter. Collected cells were washed in FACS buffer (PBS containing 5 mM EDTA and 1% BSA), resuspended, and counted. Five million cells from each sample were stained with fluorophore-conjugated antibodies on ice for 30 min, co-stained with Aqua, washed, resuspended in 450 μl, supplemented with 50 μl of CountBright absolute counting beads, and analyzed on a BD LSR Fortessa flow cytometer. DCs were scored as CD45+Ly6CCD24+MHCII+F480−(CD11b+ or CD103+) cells using the gating strategy described in Broz M L, et al., Cancer Cell, 8; 26(6):938 (2014).
To test whether the efficacy of the tumor cell vaccine and checkpoint combination treatment for an anti-tumor immune response depends on DCs that can cross-present tumor antigens, the numbers of CD11b^+C103^−DC2 cells and CD11b^−CD103^+DC1 cells were enumerated by immunophenotyping and flow cytometry. […] As before, mice bearing flank B16-Ova tumors were treated with saline or the tumor cell vaccine intra-tumorally, in the presence or absence of systemic checkpoint blockade (FIG. 5A), and analyzed. […]
On the technique in general: Flow cytometry measures light scatter and fluorescence of single cells or particles in a stream.

The subject of series [3] is B16-Ova tumors. Briefly: Flank B16-Ova tumors in mice: tumor size, survival, re-challenge. The class given is in vivo, C57BL/6J WT mice. To be noted: intratumoral injection alone, three weekly doses. The method, then:
Cross-sectional area of tumors was measured in mm^2 using calipers every 2-3 days. In tumor re-challenge experiments, naive mice controls or mice who had complete tumor regression and remained tumor free for at least 60 days were subcutaneously injected in the left flank (contra-lateral to the initial tumor) with 0.1×10^6 B16-Ova cells, and tumor development was monitored for another 60 days.

The subject of series [4] is B16-Ova tumors. Kind of series: Circulating H2-Kb/[…]-tetramer positive CD8+ T-cells in mice bearing B16-Ova tumors. The class given is in vivo, C57BL/6J WT mice. To be noted: bled after the second intra-tumoral dose. Here is the method:
Briefly, 50 μl of whole blood was collected by retro-orbital bleeding, centrifuged at 250×g for 5 min, followed by 3 rounds of RBC lysis in 200 ul of ACK buffer. Cells were then washed once in Tetramer stain buffer (PBS containing 5 mM EDTA, 1% BSA and 50 nM Dasatinib), and stained with PE-conjugated Tetramer for 40 min at RT, followed by co-staining with anti-CD8 for 10 min at 4° C. Cells were then stained with DAPI, washed and re-suspended in tetramer stain buffer for flow cytometry analysis.

Setting [5] is: MC-38-Ova cells treated with 10 uM for 24 h.
Where [6] appears, read: MC-38-Ova cells treated with 50 uM for 24 h.

Each structure is given as a SMILES string.

For `O=C1c2c(O)ccc(O)c2C(=O)c2c(NCCNCCO)ccc(NCCNCCO)c21` [Mito, mitoxantrone], the “% CD3+CD8+IFN-γ+ T-cells MEAN” value is 3.433% with MC-38-Ova cells (setting [5]) and 0.148% with MC-38-Ova cells (setting [6]). Further, in the series with RIPK1, the RIPK1 activation result is reported as “induce RIPK1 activation”. The “immunogenic cell death / calreticulin exposure” value in series [1] was “promote strong immunogenic cell death”.
Consider `COc1cc([C@@H]2c3cc4c(cc3[C@@H](O[C@@H]3O[C@@H]5CO[C@@H](C)O[C@H]5[C@H](O)[C@H]3O)[C@H]3COC(=O)[C@H]23)OCO4)cc(OC)c1O` [Etop, etoposide], for which the entries for the “% CD3+CD8+IFN-γ+ T-cells MEAN” value in the series with MC-38-Ova cells (setting [5]) and with MC-38-Ova cells (setting [6]) were 13.13% and 3.83%, respectively. Further, in the series with MC-38-Ova cells (MC-38-Ova, etoposide 10 μM), the “inducing the appearance of IFNγ+OT-1 CD8+ T-cells” value is recorded as “the most effective treatment”. Also, the “viability of BMDCs” value in the series on BMDCs is “significantly reduced”. For the same compound, in the series with B16-Ova tumors [2], the “number of CD103+DC1 in tumors” value was “did not enhance numbers of CD103+DC1”. Moreover, the tumor growth result in the series on B16-Ova tumors [3] is “no effect on tumor growth”. Besides, in the series on B16-Ova tumors [4], the “H2-Kb-SIINFEKL (SEQ ID NO: 1)-specific T-cells (%) MEAN” value is 0.29%. In the series on RIPK1, the RIPK1 activation result was “induce RIPK1 activation”. Moreover, the “immunogenic cell death / calreticulin exposure” value in series [1] was “ineffective at inducing ER stress and calreticulin exposure”.
